Measured values taken from US4859682A, “2-Halogenated-8- and 1,8-substituted ergolenes” (Richter Gedeon Vegyeszeti Gyar Rt., priority 1986, dated 1989).
Where a name gives a salt, the structure may show the parent alone.

Tests used:
[1] = Inhibition of the conditioned avoidance response (CAR inhibition); format: in vivo, Hann-Wistar rats (male); conditions: rats; for ED50: Rattus norvegicus, po, 1 h, p.o., 60 min before test
Procedure: (§1) The investigations were carried out on Hann-Wistar (LATI=a Hungarian firm with the name "Institute for Breeding Laboratory Animals") rats and CFLP (LATI) mice. The compounds to be tested were orally administered in a volume of 5 ml/kg of body-weight (abbreviated: ml/kg) to rats and in a volume of 10 ml/kg to mice 60 minutes before starting the experiment.
(§2) The substances were suspended in a solution of Tween 80 of 0.5% strength and then diluted to the desired concentration with physiological saline solution.
(§3) The results are expressed as percentages or, alternatively the ED50 values together with the 95% fiducial limits are given as calculated by means of the probit analysis [J. T. Litschfield and F. Wilcoxon: J. Pharmacol. 96, 99 (1949)].
1. Inhibition of the conditioned avoidance response (CAR inhibition)
The method of D. Bovet et al. (in: Neuropsychopharmacology Vol. 2., p. 142 ed. Elsevier Publishing House, Amsterdam, 1961) was used for this test.
Male rats weighing 140 to 160 g were conditioned for 10 days in an automated six-channel shuttle box (VKI). Each one session consisted of 30 cycles; the time of the partial cycles was 15 seconds for intersignal time, 15 seconds for light stimulus, 10 seconds for light stimulus and footshock (0.8 mA). The selected animals (n=6; selected on the basis of a performance higher than 80% at the 10th day) were treated with a 20 mg/kg dose of the compounds to be tested before the 11th session and their performance (i.e. the mean of the number of the conditioned avoidance responses) was compared to the value obtained for each group at the previous day taken as control value.

[2] = Investigation of the cataleptogenic effect (catalepsy); format: in vivo, Hann-Wistar rats (male); conditions: rats; for ED50 at 5 h: rat, in vivo, po, hourly observed for 5 hours; for Catalepsy (percent): 60 mg/kg p.o.
Procedure: as §1, §2, §3
2. Investigation of the cataleptogenic effect
The method of G. Stile and H. Launer [Arzneim.-Forsch. 21, 252 (1971)] was used for this test.
Male rats weighing 90 to 110 g (n=6) were treated with different doses of the compounds to be tested, then the number of the animals showing catalepsy was hourly observed for 5 hours.

[3] = Investigation of the amphetamine group toxicity; format: in vivo, CFLP mice; conditions: d-amphetamine 21 mg/kg i.p., 24 hours, mice; for Amphetamine group tox. (percent): 30 mg/kg p.o.
Procedure: as §1, §2, §3
3. Investigation of the amphetamine group toxicity
The method of C. D. Proctor et al. [Arch. Int. Pharmacodyn. Ther. 163, 74 (1966)] was used for this test.
The examination was carried out on mice of both sexes weighing 22 to 27 g (n=5). At the 60th minute after administration of the compounds to be tested in a dose of 30 mg/kg, d-amphetamine in a dose of 21 mg/kg was intraperitoneally given to the animals tightly closed together (25 cm^2 /mouse) and the percentage of the perished animals was registered after 24 hours.

[4] = tested on: dopaminergic system; assay: Investigation of the apomorphine hypothermia-reverting effect; format: in vivo, Hann-Wistar rats; conditions: 10 mg/kg p.o., apomorphine 5 mg/kg i.p., rats
Procedure: as §1, §2, §3
4. Investigation of the apomorphine hypothermia-reverting effect
The method of A. Barnett et al. [Arch. Int. Pharmacodyn. Ther. 198, 242 (1972)] was used for this test.
The rectal temperature of rats (n=5) was determined by using an Ellab thermometer before administering the compounds to be tested in a dose of 10 mg/kg. Thereafter, a dose of 5 mg/kg of apomorphine was intraperitoneally given and the temperature of the animals was hourly registered for 3 hours.
The significant apomorphine-antagonizing action (reversion of the hypothermia) of the compounds is a proof of inhibition of the dopaminergic system.

[5] = Investigation of the asphyxial anoxia; format: in vivo, CFLP mice; conditions: for Asphyxial anoxia (percent): 50 mg/kg p.o.; for Asphyxial anoxia (percent) / ED50: mice; for ED50: Mus musculus, po, 1 h, survival time longer by 30% than control = protected
Procedure: as §1, §2, §3
5. Investigation of the asphyxial anoxia
The method of C. Caillard et al. [Life Sci. 16, 1607 (1975)] was used for this test.
Mice (n=5) of both sexes weighing 22 to 24 g were starved for 16 hours, then treated with a 50 mg/kg dose of the compounds to be tested. After 60 minutes, the animals were placed in tightly closed glass bottles of 100 ml volume and the survival time was registered.

[6] = H. Watchel et al., Life Sci. 33, 2583; cited from earlier work

CC(=O)OCC1C=C2c3cccc4c3c(c(Cl)n4C=O)CC2N(C)C1 (stereo not drawn) [B, 8-acetyloxymethyl-2-chloro-1-formyl-6-methyl-9-ergolene hydrogen sulfate]
ED50 [1]: 3.7 mg/kg | ED50 at 5 h [2]: 51.9 mg/kg | Amphetamine group tox. (percent) [3]: 10% | Apomorphine hypothermia, difference of temperature change vs. apomorphine alone, 60 min [4]: +2.0 °C | Apomorphine hypothermia, difference of temperature change vs. apomorphine alone, 120 min [4]: +2.4 °C | Asphyxial anoxia (percent) [5]: 20%

CN1CC(CO)C=C2c3cccc4c3c(c(Cl)n4C)CC21 (stereo not drawn) [E, 2-chloro-1,6-dimethyl-8-hydroxymethyl-9-ergolene maleate]
CAR inhibition (percent) ([1]; 20 mg/kg p.o.): 24% | Catalepsy (percent) [2]: 0% | Amphetamine group tox. (percent) [3]: 0% | Apomorphine hypothermia, difference of temperature change vs. apomorphine alone, 60 min [4]: +0.8 °C | Apomorphine hypothermia, difference of temperature change vs. apomorphine alone, 120 min [4]: +1.8 °C | ED50 [5]: 8.6 mg/kg | antihypoxic effect (in words) ([5]; mice p.o.): the antihypoxic effect comes into prominence

CN1CC(CCl)C=C2c3cccc4c3c(c(Cl)n4C=O)CC21 (stereo not drawn) [C, 2-chloro-8-chloromethyl-1-formyl-6-methyl-9-ergolene]
ED50 [1]: 12.9 mg/kg | Catalepsy (percent) [2]: 0% | Amphetamine group tox. (percent) [3]: 0% | Apomorphine hypothermia, difference of temperature change vs. apomorphine alone, 60 min [4]: +0.6 °C | Apomorphine hypothermia, difference of temperature change vs. apomorphine alone, 120 min [4]: +1.2 °C | Asphyxial anoxia (percent) [5]: 50%

CCN(CC)C(=O)NC1C=C2c3cccc4[nH]c(Br)c(c34)CC2N(C)C1 (stereo not drawn) [2-Bromolysuride, 2-bromolysuride, reference compound]
ED50 at 5 h [2]: 3.3 mg/kg | neuroleptic effect (in words) [6]: strong neuroleptic effect

CC(=O)OCC1C=C2c3cccc4c3c(c(Cl)n4C(C)=O)CC2N(C)C1 (stereo not drawn) [A, 1-Acetyl-8-acetyloxymethyl-2-chloro-6-methyl-9-ergolene]
ED50 [1]: 3.4 mg/kg | ED50 at 5 h [2]: 46.5 mg/kg | ED50 ([3]; Mus musculus, po, read-out: Amphetamine group tox. ED50): 19.6 mg/kg | Apomorphine hypothermia, difference of temperature change vs. apomorphine alone, 60 min [4]: +1.3 °C | Apomorphine hypothermia, difference of temperature change vs. apomorphine alone, 120 min [4]: +1.3 °C | ED50 [5]: 34.8 mg/kg

CC(=O)OCC1C=C2c3cccc4c3c(c(Br)n4C(C)=O)CC2N(C)C1 (stereo not drawn) [D, 1-acetyl-8-acetyloxymethyl-2-bromo-6-methyl-9-ergolene]
ED50 [1]: 4.6 mg/kg | ED50 at 5 h [2]: 42.4 mg/kg | Amphetamine group tox. (percent) [3]: 0% | Apomorphine hypothermia, difference of temperature change vs. apomorphine alone, 60 min [4]: +0.9 °C | Apomorphine hypothermia, difference of temperature change vs. apomorphine alone, 120 min [4]: +1.7 °C | Asphyxial anoxia (percent) [5]: 50%
